In PubChem BioAssay (NCI):
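Growth conditions: 96-well plates. Treatment: test compound, 48 hours, 5 concentrations. Analysis: linear interpolation between bracketing concentrations; unreached endpoints set to highest concentration. Abbreviation: GI50, concentration required for 50% inhibition of growth. The concentration for full growth arrest is given as TGI.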

What was measured:
Assay in all cases: NCI anticancer screen, dose series, 48 h
[1] = system: 786-0 renal
[2] = system: A498 renal
[3] = system: A549 NSCLC
[4] = system: ACHN renal
[5] = system: BT-549 breast
[6] = system: CAKI-1 renal
[7] = system: CCRF-CEM leukemia
[8] = system: COLO 205 colon
[9] = system: DU-145 prostate
[10] = system: EKVX NSCLC
[11] = system: HCC-2998 colon
[12] = system: HCT-116 colon
[13] = system: HCT-15 colon
[14] = system: HL-60(TB) leukemia
[15] = system: HOP-62 NSCLC
[16] = system: HOP-92 NSCLC
[17] = system: HS 578T breast
[18] = system: HT29 colon
[19] = system: IGROV1 ovarian
[20] = system: K-562 leukemia
[21] = system: KM12 colon
[22] = system: LOX IMVI melanoma
[23] = system: M14 melanoma
[24] = system: MALME-3M melanoma
[25] = system: MCF7 breast
[26] = system: MDA-MB-231 breast
[27] = system: MDA-MB-435
[28] = system: MOLT-4 leukemia
[29] = system: NCI-H226 lung

SMILES: COc1ccc(N2CCN(CC(=O)N3CCN(c4nnc(-c5ccccc5)c(-c5ccccc5)n4)CC3)CC2)cc1
- GI50 [1]: 4.91 µM
- TGI [1]: > 100 µM
- GI50 [2]: 3.35 µM
- TGI [2]: 85.6 µM
- GI50 [3]: 16.2 µM
- TGI [3]: > 100 µM
- GI50 [4]: 7.94 µM
- TGI [4]: > 100 µM
- GI50 [5]: 3.47 µM
- TGI [5]: 33 µM
- GI50 [6]: 11.6 µM
- TGI [6]: > 100 µM
- GI50 [7]: 6.61 µM
- TGI [7]: > 100 µM
- GI50 [8]: 3.25 µM
- TGI [8]: 13.7 µM
- GI50 [9]: 16.2 µM
- TGI [9]: > 100 µM
- GI50 [10]: 4.47 µM
- TGI [10]: > 100 µM
- GI50 [11]: 9.73 µM
- TGI [11]: > 100 µM
- GI50 [12]: 3.96 µM
- TGI [12]: 38.6 µM
- GI50 [13]: 6.07 µM
- TGI [13]: > 100 µM
- GI50 [14]: 6.03 µM
- TGI [14]: > 43.2 µM
- GI50 [15]: > 67.4 µM
- TGI [15]: > 100 µM
- GI50 [16]: 7.13 µM
- TGI [16]: > 94.4 µM
- GI50 [17]: 9.46 µM
- TGI [17]: > 100 µM
- GI50 [18]: 3.19 µM
- TGI [18]: 11.3 µM
- GI50 [19]: 43.2 µM
- TGI [19]: > 100 µM
- GI50 [20]: 5.6 µM
- TGI [20]: > 100 µM
- GI50 [21]: 5.67 µM
- TGI [21]: > 100 µM
- GI50 [22]: 11.6 µM
- TGI [22]: > 100 µM
- GI50 [23]: 17 µM
- TGI [23]: > 100 µM
- GI50 [24]: 6.82 µM
- TGI [24]: > 100 µM
- GI50 [25]: 4.44 µM
- TGI [25]: 34.2 µM
- GI50 [26]: 65.3 µM
- TGI [26]: > 100 µM
- GI50 [27]: 5.48 µM
- TGI [27]: > 100 µM
- GI50 [28]: 4.79 µM
- TGI [28]: > 71 µM
- GI50 [29]: > 100 µM
